These results are taken from ChEMBL document CHEMBL1201862, “PubChem BioAssay data set” (2004).

Test systems include OVCAR-3; SF-268; SK-MEL-2; SK-OV-3; SF-539; OVCAR-8; HT-29; RXF 393; Malme-3M; HCT-116; HCT-15; MOLT-4; SN12C; A549; SW-620; K562; A498.
Assay in all cases: DTP human tumour cell line panel, 48 h

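Cells were grown in 96-well plates and exposed to each compound for 48 hours at five concentrations; endpoints were interpolated linearly between bracketing concentrations, or set to the highest concentration if not reached. Here, GI50 denotes the concentration required for 50% inhibition of growth.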 Activity calls are given as the source filed them. No stated cut-off is given here; in the data, active = GI50 up to about 1.1 µM and inactive = higher.

A word on the GI50: it is the concentration that inhibits growth by half. Turning to `CCOC(=O)Cn1c2ccccc2c(=O)c2cc(C)c(C)c(C#N)c21`, the GI50 is > 100 µM (inactive) in the test on OVCAR-3; > 100 µM (inactive) in the test on SF-268; > 100 µM (inactive) in the test with SK-MEL-2; 55.5 µM (inactive) with SK-OV-3; > 100 µM (inactive) in the test with SF-539; 84.3 µM (inactive) in the test on OVCAR-8. The GI50 in the test with HT-29 was > 100 µM (inactive); in the test on RXF 393 it was 63.7 µM (inactive); in the test on Malme-3M, > 100 µM (inactive); in the test on HCT-116 it was 53.5 µM (inactive); in the test with HCT-15, > 100 µM; in the test on MOLT-4 it was > 100 µM (inactive). Also, the GI50 with SN12C, with A549 and in the test on SW-620 was > 100 µM (inactive) throughout.

Regarding `CCCCCCCC(=O)OCC(C[As](=O)(O)O)OC(=O)CCCCCCC` (configuration not stated), the GI50 in the test on SF-268 is 14.9 µM (inactive); with K562 it was 20.6 µM (inactive); in the test on A498, 19.1 µM (inactive); in the test on SK-OV-3, 15.7 µM (inactive); in the test on SF-539, 14.1 µM (inactive); in the test with OVCAR-8, 15.8 µM (inactive). The GI50 is 17.1 µM (inactive) in the test on HT-29; 5.01 µM (inactive) with RXF 393; 15.1 µM (inactive) in the test on Malme-3M; 16.7 µM (inactive) in the test with HCT-116; 14.9 µM in the test with HCT-15; 16.6 µM (inactive) in the test with MOLT-4. For the same compound, the results for the GI50 in the test with SN12C, with A549 and with SW-620 were 14.7 µM (inactive), 23 µM (inactive) and 15.6 µM (inactive), respectively.

On to `COc1cc(/C=C(\C#N)c2ccccc2)cc(OC)c1`, for which the GI50 is > 100 µM (inactive) in the test on OVCAR-3; 40.9 µM (inactive) in the test on SF-268; 15.2 µM (inactive) in the test on K562; 73.6 µM (inactive) in the test with SK-MEL-2; 48.2 µM (inactive) in the test with SK-OV-3; 41.1 µM (inactive) in the test with SF-539. Moreover, the GI50 was > 10 µM (inactive) in the test on OVCAR-8; 32.4 µM (inactive) with HT-29; > 100 µM (inactive) with Malme-3M; 49.5 µM (inactive) with HCT-116; 24 µM with HCT-15; 16.4 µM (inactive) in the test on MOLT-4. Also, the results for the GI50 in the test on SN12C, in the test with A549 and with SW-620 were 74.6 µM (inactive), 28.6 µM (inactive) and 38.9 µM (inactive), respectively.

`CCc1cc2c(O)c(c1)Cc1cc(CC)cc(c1O)Cc1cc(CC)cc(c1O)Cc1cc(CC)cc(c1O)Cc1cc(CC)cc(c1O)Cc1cc(CC)cc(c1O)Cc1cc(CC)cc(c1O)C2`: the GI50 was > 100 µM (inactive) in the test on OVCAR-3; > 100 µM (inactive) in the test with SF-268; > 10 µM (inactive) in the test on K562; > 100 µM (inactive) in the test on SK-MEL-2; > 100 µM (inactive) with SF-539; > 100 µM (inactive) in the test with OVCAR-8. Besides, the GI50 with HT-29 was > 100 µM (inactive); in the test with RXF 393, 16.9 µM (inactive); in the test with Malme-3M, > 100 µM (inactive); with HCT-116 it was > 100 µM (inactive); in the test with HCT-15, > 100 µM; in the test with MOLT-4 it was 78.2 µM (inactive). In addition, the GI50 in the test with SN12C, in the test with A549 and in the test on SW-620 was > 100 µM (inactive) in each case.

For `O=S1OC(c2ccccc2)(c2ccccc2)C(c2ccccc2)(c2ccccc2)O1`, the GI50 with OVCAR-3 is > 100 µM (inactive); with SF-268, > 91.4 µM (inactive); in the test with K562, 25.1 µM (inactive); in the test on A498, > 100 µM (inactive); in the test on SK-OV-3 it was > 100 µM (inactive); in the test with SF-539, > 100 µM (inactive). Besides, the GI50 in the test with OVCAR-8 was > 100 µM (inactive); with HT-29, 7.36 µM (inactive); in the test with RXF 393, > 72.1 µM (inactive); in the test with Malme-3M it was > 100 µM (inactive); with HCT-116, 4.61 µM (inactive); with HCT-15, > 30.3 µM. In addition, the GI50 with MOLT-4 was 5.26 µM (inactive); in the test on SN12C, > 100 µM (inactive); with A549 it was 40 µM (inactive); with SW-620, > 100 µM (inactive).

In the case of `NC(CNc1ccc(O)cc1)C(=O)O` (configuration not stated), the GI50 was > 100 µM (inactive) with OVCAR-3; > 100 µM (inactive) in the test with SF-268; 89.1 µM (inactive) with K562; > 100 µM (inactive) with A498; 60.4 µM (inactive) in the test with SK-MEL-2; > 100 µM (inactive) in the test with SK-OV-3. For the same compound, the GI50 is > 100 µM (inactive) in the test on OVCAR-8; > 100 µM (inactive) with HT-29; > 100 µM (inactive) in the test with RXF 393; > 100 µM (inactive) in the test with Malme-3M; > 100 µM (inactive) in the test with HCT-116; > 100 µM in the test with HCT-15. In addition, the GI50 with MOLT-4, in the test with SN12C, with A549 and in the test on SW-620 was > 100 µM (inactive) each time.

With `COc1ccc(-c2oc3cc(O)c(OC)c(O)c3c(=O)c2OC2OC(CO)C(O)C(O)C2O)cc1` (configuration not stated), the GI50 was > 100 µM (inactive) in the test on OVCAR-3; > 100 µM (inactive) with K562; > 100 µM (inactive) in the test on SK-MEL-2; > 100 µM (inactive) in the test on SK-OV-3; > 100 µM (inactive) in the test with SF-539; 91 µM (inactive) with OVCAR-8. Further, the GI50 with HT-29 is > 100 µM (inactive); with HCT-116 it was > 100 µM (inactive); with HCT-15, > 100 µM; in the test on MOLT-4, > 100 µM (inactive); in the test on SN12C it was > 100 µM (inactive); in the test on A549, > 100 µM (inactive). Also, in the test on SW-620, the GI50 was > 100 µM (inactive).

Turning to `C[C@H]1CC[P+](C)(c2ccccc2)C1` (some centres not stated), the GI50 with OVCAR-3, in the test with K562, in the test on A498, with SK-MEL-2, in the test on SK-OV-3 and with SF-539 was > 100 µM (inactive) each time. The GI50 is > 100 µM (inactive) with OVCAR-8; > 100 µM (inactive) with HT-29; > 100 µM (inactive) with RXF 393; > 100 µM (inactive) with Malme-3M; > 100 µM (inactive) in the test with HCT-116; > 100 µM in the test with HCT-15. For the same compound, the GI50 in the test with MOLT-4, in the test on SN12C, in the test on A549 and with SW-620 was > 100 µM (inactive) throughout.

`CN/N=C(/Cc1occc(=O)c1O)C(=O)Nc1ccc(C)c(C)c1`: the GI50 in the test on OVCAR-3, with SF-268, in the test on K562, with A498, with SK-MEL-2 and in the test with SK-OV-3 was > 100 µM (inactive) in each case. The GI50 in the test on SF-539 was > 100 µM (inactive); in the test on OVCAR-8, > 100 µM (inactive); with HT-29 it was > 100 µM (inactive); in the test with Malme-3M, > 100 µM (inactive); in the test with HCT-116 it was > 100 µM (inactive); with HCT-15, > 100 µM. Besides, the GI50 with MOLT-4, in the test with SN12C, in the test on A549 and in the test with SW-620 was > 100 µM (inactive) each time.
